Laboratory results taken from PubChem BioAssay AID652229 (The Scripps Research Institute Molecular Screening Center, 2013).
Activity calls are given as the source filed them.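 The calls were made as follows: active = phosphatase PP5 activity blocked by at least 30% at 50 µM; inactive = the rest.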

Molecular target: Serine/threonine-protein phosphatase 5 (Homo sapiens) (UniProt P53041)
Assay: inhibitors of PP5 catalytic domain activity – biochemical, radiolabel, 33P-phosphohistone substrate, powder samples, selectivity assay for PP1 inhibitor project, late-stage follow-up (AID 652229)
Conditions: purified PP5c, 33P-phosphohistone dephosphorylation, scintillation; at 50 µM; hits give high values

Serine/threonine-protein phosphatase 5 (Homo sapiens), sequence (P53041 whole entry, looked up, the tested form may be a part): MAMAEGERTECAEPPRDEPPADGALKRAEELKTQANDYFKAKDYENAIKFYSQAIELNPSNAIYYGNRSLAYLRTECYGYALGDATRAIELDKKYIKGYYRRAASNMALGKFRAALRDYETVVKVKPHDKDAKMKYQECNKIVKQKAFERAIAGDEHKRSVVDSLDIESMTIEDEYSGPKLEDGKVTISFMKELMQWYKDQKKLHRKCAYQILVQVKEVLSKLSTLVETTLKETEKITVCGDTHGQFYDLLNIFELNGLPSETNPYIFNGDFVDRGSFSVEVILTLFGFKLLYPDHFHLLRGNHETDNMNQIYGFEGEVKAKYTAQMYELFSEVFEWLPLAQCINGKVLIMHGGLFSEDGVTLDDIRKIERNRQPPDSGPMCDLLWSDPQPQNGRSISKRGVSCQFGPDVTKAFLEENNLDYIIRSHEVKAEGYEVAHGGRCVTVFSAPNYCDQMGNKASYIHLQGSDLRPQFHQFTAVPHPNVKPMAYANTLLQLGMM

Structure (SMILES)	inhibition
Oc1c(C(c2ccccn2)N2CCC(Cc3ccccc3)CC2)cc(Cl)c2cccnc12 (configuration not stated)	4.23% (inactive)
Oc1c(C(c2ccccn2)N2CCN(c3ccccc3F)CC2)cc(Cl)c2cccnc12 (configuration not stated)	-0.6% (inactive)
Oc1c(C(c2ccccn2)N2CCNCC2)cc(Cl)c2cccnc12 (configuration not stated)	6.84% (inactive)

More lines, now with the values ahead:

inhibition	Structure (SMILES)
3.21% (inactive)	CCN1CCN(C(c2ccccn2)c2cc(Cl)c3cccnc3c2O)CC1 (configuration not stated)
6.08% (inactive)	CC1CCN(C(c2ccccn2)c2cc(Cl)c3cccnc3c2O)CC1 (configuration not stated)
3.05% (inactive)	CN1CCN(C(c2ccccn2)c2cc(Cl)c3cccnc3c2O)CC1 (configuration not stated)
0.25% (inactive)	CC(C)(C)OC(=O)N1CCN(C(c2ccccn2)c2cc(Cl)c3cccnc3c2O)CC1 (configuration not stated)
